Where a name gives a salt, the structure may show the parent alone.
Legend:
[1] = system: capsaicin-evoked nocifensive behaviors; experiment: Capsaicin-evoked nocifensive behaviors after hindpaw injection; format: in vivo, mouse; conditions: co-injection with capsaicin into hindpaw, 10 min, versus capsaicin alone
Experimental: It was shown (Example 3) that QAQ blocks capsaicin-evoked sensory neuron activation in vitro, in a light-dependent manner. It was then tested whether QAQ can block nocifensive responses in vivo, and whether this action can be regulated by light. This experiment consisted of 2 parts: (1) it was tested whether QAQ acts as an analgesic, in the absence of light. […] Injection of capsaicin into the mouse hindpaw elicits a 5-10 min bout of licking and flinching; such responses are blocked by co-application of lidocaine, morphine, and other analgesics (Binshtock et al., 2007 Nature 449:607-10). Because analgesics are molecules that alleviate pain, evaluating the analgesic properties of a new molecule requires induction of discomfort in animals. The ability of QAQ to inhibit capsaicin-evoked nocifensive behaviors was tested. Fourteen mice were used for this experiment: to one set of 7 mice, capsaicin alone was applied by injection; to a second set of 7 mice, capsaicin and QAQ were co-injected. The mice were then placed in a transparent Plexiglas chamber and behavior was video recorded for 10 min. After 10 min, mice were euthanized.

P2X7R [2] = target: T1, P2X7R (Homo sapiens, UniProt Q99572); experiment: Loading of QAQ through P2X7R in HEK cells co-expressing Shaker channel; format: cell-based
T1 construct: expressed in transfected cells; host or cells: HEK cells, co-expressed with Shaker channel
T1 sequence (Q99572 1-595): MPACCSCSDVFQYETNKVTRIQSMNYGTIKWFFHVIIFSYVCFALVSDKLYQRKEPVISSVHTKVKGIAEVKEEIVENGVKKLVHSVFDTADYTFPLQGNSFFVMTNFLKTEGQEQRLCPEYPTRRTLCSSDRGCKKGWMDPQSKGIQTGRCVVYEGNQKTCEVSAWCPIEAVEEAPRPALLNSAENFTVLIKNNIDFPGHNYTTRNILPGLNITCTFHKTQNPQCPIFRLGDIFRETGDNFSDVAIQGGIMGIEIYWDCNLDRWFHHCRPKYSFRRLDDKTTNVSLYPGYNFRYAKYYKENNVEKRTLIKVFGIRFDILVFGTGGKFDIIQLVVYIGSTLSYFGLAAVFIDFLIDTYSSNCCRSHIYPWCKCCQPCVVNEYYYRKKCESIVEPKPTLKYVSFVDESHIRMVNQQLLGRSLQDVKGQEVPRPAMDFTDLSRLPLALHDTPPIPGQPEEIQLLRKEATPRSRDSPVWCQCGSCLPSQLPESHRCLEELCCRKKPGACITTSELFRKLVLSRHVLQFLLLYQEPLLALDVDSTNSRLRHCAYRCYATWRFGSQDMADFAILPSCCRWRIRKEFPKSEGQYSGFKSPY
Source text: (§1) Advantage was taken of the biophysical properties of certain ion channels. TRPV1 channel and the ATP gated P2X7 receptor can open a wide pore upon prolonged agonist exposure. This pore becomes then permeable to large organic cations like the local anesthetic QX314. It was investigated whether QAQ could be loaded into cells expressing either one of these two channels (P2X7R or TRPV1). If so, specific cells could be targeted with QAQ, and then excitability could be controlled with light. This concept is depicted schematically in FIG. 8.
(§2) It was first determined whether P2X7R expressed in HEK cells could be an entry route for QAQ. P2X7R was co-expressed together with Shaker channel.

P2X7R [3] = target: T1, P2X7R; experiment: Loading of QAQ into hippocampal neurons transfected with P2X7R; format: cell-based
Source text: (§3) Hippocampal neurons were transfected with P2X7R. […] In 1 of 13 cells tested, QAQ entered a cell which was not heterologously expressing P2X7R, possibly because this cell was expressing endogenous P2X7 receptors. It was then asked whether QAQ could enter cells naturally expressing either of these channels and looked at sensory neurons. Sensory neurons are activated by sensory input and project towards the central nervous system. Sensory neurons of the trigeminal ganglia naturally express TRPV1 channels. QAQ was applied together with capsaicin on these sensory neurons in in vitro culture.

neurons = experiment: Neuron firing under current clamp with QAQ; format: cell-based; conditions: progressively greater current injected
Source text: The effect of QAQ on neurons was investigated. Neuron firing was examined under current clamp, by injecting progressively greater current into the cell, under 2 different wavelengths of light. […] This is because block of Na channels dominates: when Na channels are blocked, the initial phase of the AP is blocked and neurons are silent. Again, QAQ acts like lidocaine in neurons, silencing cells under green light or in the dark.

[4] = system: native K channels of sensory neurons naturally expressing TRPV1; experiment: QAQ with capsaicin on sensory neurons of the trigeminal ganglia in culture; format: cell-based; conditions: QAQ applied together with capsaicin
Source text: as §3

Kν channels = experiment: Stated characteristics of exemplary synthetic regulators (channel block)
[5] = system: Shaker K channel, Kν2.1, Kν3.1, Kν4.2, hippocampal Kν; experiment: QAQ photoswitching of voltage gated K channels (QAQ in the pipette); format: cell-based
Experimental: (§4) Experiments were conducted to test the effect of QAQ on various channels.
(§5) Purple light was used in all cases to relieve the block. FIG. 6 depicts a bar graph showing the quantification of photoswitching on individual channels when having 100 μM QAQ in the pipette.

TRPV1 = target: T2, TRPV1 (Homo sapiens, UniProt Q8NER1); experiment: Loading of QAQ through TRPV1 in cells co-expressing Shaker channel; format: cell-based
T2 construct: expressed in transfected cells; the context is HEK cells
Source text: as §1, §2

[6] = system: native Na channels expressed in NG108-15 cells (Naν); experiment: QAQ photoswitching of native Na channels in NG108-15 cells; format: cell-based
Experimental: as §4, §5

[7] = system: L type and N type Ca channels (L-type Caν, Caν2.2); experiment: QAQ photoswitching of Ca channels; format: cell-based
Experimental: as §4, §5

Shaker channel = target: T3, Shaker channel (Drosophila melanogaster, UniProt P08510); experiment: QAQ membrane permeance: patch pipette versus external application, HEK cells expressing Shaker channel; format: cell-based
T3 construct: expressed in transfected cells; host or cells: HEK cells
Source text: The K current was observed upon a depolarization to +40 mV under purple 380 nm light.

[8] = target: T4, Shaker IR channels (Sh-IR) (Drosophila melanogaster, UniProt P08510, DEL6-46); experiment: Whole-cell patch clamp of HEK293 cells expressing Shaker IR after AAQ/EtAcAQ/AcAQ treatment; format: cell-based; conditions: 500-nm and 380-nm light; for block of steady-state current: after blocker pre-treatment (400 uM in FIG. 2)
T4 construct: expressed in transfected cells; host or cells: HEK293 / HEK293T cells, calcium phosphate transfection

Sh-IR = target: T5, Sh-IR (Drosophila melanogaster, UniProt P08510, DEL6-46); experiment: AzoQA structure-activity screen: HEK293T cells expressing Sh-IR, applied in dark, washout, whole-cell voltage clamp; format: cell-based; conditions: for isomer preference of block: cis (380 nm) versus trans (500 nm)
T5 construct: expressed in transfected cells; host or cells: HEK293 / HEK293T cells, calcium phosphate transfection
Source text: Solutions were adjusted to 300-310 mOsm.
These AzoQA's were applied in dark, which favors the trans configuration, at various concentrations to HEK293T cells expressing Sh-IR, followed by washout and whole-cell voltage clamp recording.

[9] = system: endogenous K+ channels in dissociated hippocampal neurons
[10] = Isomerization wavelengths of red-shifted regulator; format: physicochemical
[11] = system: endogenous K+ channels in dissociated hippocampal neurons; conditions: preincubation at 300 nM; cited from earlier work
[12] = illumination at 420 nm
[13] = target: T6, Sh-IR internal TEA binding site (Drosophila melanogaster, UniProt P08510, DEL6-46); experiment: Inside-out patches from HEK293 cells expressing Sh-IR, dose-response under 380 and 500 nm light; format: cell-based; conditions: inside-out patch
T6 construct: expressed in transfected cells; host or cells: HEK293 / HEK293T cells, calcium phosphate transfection

[14] = 100 μM QAQ in the pipette, purple light relieves block

T5 sequence (P08510 other isoform, or with tags, fused parts or gaps DEL6-46): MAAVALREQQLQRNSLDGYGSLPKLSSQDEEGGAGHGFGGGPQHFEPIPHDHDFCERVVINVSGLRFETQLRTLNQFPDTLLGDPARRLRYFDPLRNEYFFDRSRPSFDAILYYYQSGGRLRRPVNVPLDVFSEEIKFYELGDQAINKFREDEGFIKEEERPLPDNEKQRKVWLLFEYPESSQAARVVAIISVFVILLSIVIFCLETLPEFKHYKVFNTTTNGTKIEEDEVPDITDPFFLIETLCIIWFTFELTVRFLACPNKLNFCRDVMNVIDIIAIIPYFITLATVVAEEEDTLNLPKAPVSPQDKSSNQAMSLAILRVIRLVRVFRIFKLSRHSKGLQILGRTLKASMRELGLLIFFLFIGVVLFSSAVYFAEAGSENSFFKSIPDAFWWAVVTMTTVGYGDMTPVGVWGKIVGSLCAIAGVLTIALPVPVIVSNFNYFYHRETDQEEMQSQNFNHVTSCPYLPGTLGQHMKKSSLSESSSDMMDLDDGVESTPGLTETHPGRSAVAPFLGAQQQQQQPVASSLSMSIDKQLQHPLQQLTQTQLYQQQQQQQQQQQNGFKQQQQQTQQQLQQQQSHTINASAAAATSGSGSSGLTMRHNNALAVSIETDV
T4 sequence (P08510 other isoform, or with tags, fused parts or gaps DEL6-46): as above
T3 sequence (P08510 whole entry): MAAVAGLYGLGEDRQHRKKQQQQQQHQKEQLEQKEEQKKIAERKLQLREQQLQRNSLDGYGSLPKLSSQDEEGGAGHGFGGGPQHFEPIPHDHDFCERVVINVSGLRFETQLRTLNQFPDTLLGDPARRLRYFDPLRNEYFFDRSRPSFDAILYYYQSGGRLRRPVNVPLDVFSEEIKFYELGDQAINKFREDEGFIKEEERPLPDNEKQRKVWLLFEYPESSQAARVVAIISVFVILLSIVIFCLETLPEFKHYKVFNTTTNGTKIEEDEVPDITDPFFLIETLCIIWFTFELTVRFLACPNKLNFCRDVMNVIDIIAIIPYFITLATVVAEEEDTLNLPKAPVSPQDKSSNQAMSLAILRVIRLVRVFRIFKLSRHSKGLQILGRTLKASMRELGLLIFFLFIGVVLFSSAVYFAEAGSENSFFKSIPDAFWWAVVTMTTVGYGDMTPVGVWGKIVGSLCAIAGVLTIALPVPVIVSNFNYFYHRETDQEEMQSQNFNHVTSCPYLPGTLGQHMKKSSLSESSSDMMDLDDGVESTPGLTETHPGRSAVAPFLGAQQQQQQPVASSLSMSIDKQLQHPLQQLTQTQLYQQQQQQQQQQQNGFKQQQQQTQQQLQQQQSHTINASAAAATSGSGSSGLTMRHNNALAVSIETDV
T6 sequence (P08510 with tags, fused parts or gaps DEL6-46): as the sequence (P08510 other isoform, or with tags, fused parts or gaps DEL6-46) above
T2 sequence (Q8NER1 whole entry, species assumed): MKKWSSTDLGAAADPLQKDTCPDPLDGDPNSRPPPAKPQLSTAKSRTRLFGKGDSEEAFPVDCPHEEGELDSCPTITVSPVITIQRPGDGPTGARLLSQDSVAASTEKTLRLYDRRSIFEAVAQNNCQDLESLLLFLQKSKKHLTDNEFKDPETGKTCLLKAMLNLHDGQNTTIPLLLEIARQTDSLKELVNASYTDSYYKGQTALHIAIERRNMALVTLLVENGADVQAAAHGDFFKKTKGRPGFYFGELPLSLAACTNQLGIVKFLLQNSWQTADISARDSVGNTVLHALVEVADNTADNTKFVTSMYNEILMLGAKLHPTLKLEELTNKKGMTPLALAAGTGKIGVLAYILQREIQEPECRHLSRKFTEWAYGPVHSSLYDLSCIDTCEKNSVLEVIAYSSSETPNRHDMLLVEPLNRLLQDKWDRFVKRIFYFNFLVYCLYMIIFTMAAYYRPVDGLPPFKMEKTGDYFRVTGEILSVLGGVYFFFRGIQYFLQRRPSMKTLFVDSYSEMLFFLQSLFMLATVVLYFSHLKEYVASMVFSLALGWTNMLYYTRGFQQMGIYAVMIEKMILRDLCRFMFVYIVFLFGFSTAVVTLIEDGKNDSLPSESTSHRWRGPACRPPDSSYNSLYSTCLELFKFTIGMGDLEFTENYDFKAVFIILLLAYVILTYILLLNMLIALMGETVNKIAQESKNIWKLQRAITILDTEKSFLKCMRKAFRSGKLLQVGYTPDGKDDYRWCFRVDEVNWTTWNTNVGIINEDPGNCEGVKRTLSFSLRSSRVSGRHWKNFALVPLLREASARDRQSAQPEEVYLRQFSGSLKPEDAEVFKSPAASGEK

Compound: CC[N+](CC)(CC)CC(=O)Nc1ccc(/N=N/c2ccc(NC(=O)C[N+](CC)(CC)CC)cc2)cc1 [QAQ]
- number of licks [1]: reduced
- time spent paw lifting [1]: reduced
- loading into HEK cells (P2X7R [2]; P2X7R co-expressed with Shaker, ATP coapplied): could be loaded in the HEK cell only if P2X7 channels were expressed and ATP, the agonist for the P2X7 channels, was coapplied
- photoswitching of Shaker channels current (P2X7R [2]; application of 5 min with ATP): very good photoswitching
- loading into hippocampal neurons (P2X7R [3]; ATP): could be loaded into cells only when P2X7 receptors were expressed
- cells not heterologously expressing P2X7R that QAQ entered (P2X7R [3]; cells tested): 1 of 13
- neuron firing under green light (neurons): does at best one action potential (AP), but remains silent
- neuron firing under purple light (neurons): fires normally
- photoswitching of native K channels [4]: very robust photoswitching of native K channels
- channels blocked / selectivity (Kν channels): able to block Kν, Naν, and Caν channels
- external or internal blocker (Kν channels): internal blocker
- isomeric form that blocks (Kν channels): trans-blocker
- photoregulation of K channels [5]: photoregulate Shaker K channel and also other K channel subtypes such as Kν2, Kν3 Kν4 and native K channels in hippocampal cells
- light condition of block [5, 14]: the block occurred in the dark, or under 500 nm light
- loading into cells (TRPV1; TRPV1 co-expressed with Shaker, capsaicin): could be loaded into cells co-expressing TRPV1 and Shaker channel in the presence of the TRPV1 agonist capsaicin
- photoswitching (TRPV1; loaded in the presence of capsaicin): photoswitching could be effected
- photosensitization of Na channels [6]: photosensitizes native Na channels expressed in NG108-15 cells
- light condition of block [6, 14]: the block occurred in the dark, or under 500 nm light
- photosensitization of Ca channels [7]: photosensitize L type and N type Ca channels
- light condition of block [7, 14]: the block occurred in the dark, or under 500 nm light
- membrane permeance (Shaker channel): membrane impermeant
- photoregulation of K current, applied through the patch pipette (Shaker channel; 100 μM QAQ, +40 mV, 380 nm versus green light): photoregulation of the K channel current was observed
- photoregulation of K current, externally applied (Shaker channel; external application): no photoregulation of K current was seen

Compound: CC[N+](CC)(CC)CC(=O)Nc1ccc(N=Nc2ccc(NC(C)=O)cc2)cc1.O=C[O-] [AcAQ, 4-acetamido-4′-(2)-triethylammoniumacetamidoazobenzene formate]
- block of steady-state current [8]: persistently blocked the steady-state current in a light-dependent fashion
- photoswitching after pre-treatment ([8]; extracellular pre-treatment): considerable sustained photoswitching

Compound: C=CCCC(=O)Nc1ccc(N=Nc2ccc(NC(=O)C[N+](CC)(CC)CC)cc2)cc1.O=C[O-] [compound 10, 4-(pent-4-en)amido-4′-(2)-triethylammoniumacetamidoazobenzene formate]
- isomer preference of block (Sh-IR): essentially equal block in both cis and trans forms

Compound: CC[N+](CC)(CC)CC(=O)Nc1ccc(/N=N/c2ccc(NC(=O)c3ccccc3)cc2)cc1 [BzAQ, 4-benzamido-4′-(2)-triethylammoniumacetamidoazobenzene formate]
- minimal dose able to block >95% of Iss (Sh-IR; Iss relative to that under 380 nm illumination, extracellular treatment in dark): 25 µM
- Iss blocked ([9]; 20 μM BzAQ extracellular, Iss at +30 mV compared at 380 and 500 nm): 57+/−6.6%
- action potential firing ([9]; current clamp, cell near threshold, 500 nm light): sufficient to induce action potential firing
- effect on cellular membrane potential ([9]; current clamp, switched from cis to trans): significantly depolarize the cellular membrane potential
- channels blocked / selectivity (Kν channels): selective for Kν channels
- external or internal blocker (Kν channels): external blocker
- isomeric form that blocks (Kν channels): trans-blocker

Compound: CCN(CC)c1ccc(/N=N/c2ccc(NC(=O)C[N+](CC)(CC)CC)cc2)cc1 [DAAQ]
- channels blocked / selectivity (Kν channels): able to block Kν channels
- external or internal blocker (Kν channels): external blocker
- isomeric form that blocks (Kν channels): trans-blocker
- wavelength of first isomeric form [10]: 472 nm
- wavelength of second isomeric form [10]: 550 nm

Compound: CCC(=O)Nc1ccc(N=Nc2ccc(NC(=O)C[N+](CC)(CC)CC)cc2)cc1 [EtAcAQ]
- block of steady-state current [8]: persistently blocked the entire steady-state current in a light-dependent fashion

Compound: CCCc1ccc(N=Nc2ccc(NC(=O)C[N+](CC)(CC)CC)cc2)cc1.O=C[O-] [PrAQ, 4-propyl-4′-(2)-triethylammoniumacetamidoazobenzene formate]
- block of Iss in the cis form (Sh-IR; 40 nM): 50%
- block by the trans isomer (Sh-IR; 40 nM, 500 nm): without producing obvious block
- isomer preference of block (Sh-IR): preferentially blocks in the cis form

Compound: C=CC(=O)Nc1ccc(/N=N/c2ccc(NC(=O)C[N+](CC)(CC)CC)cc2)cc1 [AAQ, Acrylamide Azobenzene Quaternary ammonium]
- photosensitization of endogenous K+ channels [11]: strongly photosensitize endogenous K^+
- cis isomer content [12]: 50%
- current block after washout with control solution [13]: relieved within several seconds of washout
- IC50 ([13]; 380 nm light, n=3-5, read-out: IC50 (cis isomer)): 64 µM

Source: patent US9334231B2, “Photoreactive synthetic regulator of protein function and methods of use thereof” (The Regents of the University of California, priority 2008, dated 2016)
